# Source: PubChem BioAssay (NCI)
#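 Method: 48-hour compound exposure of cells in 96-well plates, five concentrations, linear interpolation of endpoints. At the GI50, growth is halved. TGI: total growth inhibition.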
# Tested on: ACHN renal
# Assay: NCI anticancer screen, dose series, 48 h
SMILES,TGI,GI50
O=[n+]1c2c(n([O-])c3ccccc31)CCCCCCCCCC2,> 100 µM,–
CNC(=S)N(C)C(=S)Nn1c(=O)c(C)nn(C)c1=S,> 100 µM,–
OCCN1CN(CCO)CN(c2nc(N3CN(CCO)CN(CCO)C3)nc(N3CN(CCO)CN(CCO)C3)n2)C1,1.64 ng/mL,–
O=C1CCCC/C(=C/c2ccccc2)N1,> 100 µM,–
O=C1CN=C(C[N+](=O)[O-])c2ccccc21,> 100 µM,–
CCCCN(CCCC)CC(C(=O)Nc1ccc([N+](=O)[O-])cc1[N+](=O)[O-])/C(C)=N\NC(=S)NN (stereo not given),> 100 µM,–
S=C(N/N=C/c1ccco1)NC12CC3CC(CC(C3)C1)C2,> 100 µM,–
CC(=O)O.CC(=O)O.CC(=O)O.CC(=O)O.CC(=O)O.CC(=O)O.O.[Ti].[Ti],> 100 µM,> 100 µM
COc1ccc(NC(=O)CCc2cc(-c3ccc(O)c(OC)c3)nc(NC#N)n2)cc1,> 100 µM,–
COC(=O)c1cc2c3ccccc3n(C(C)=O)c2cn1,> 100 µM,–
Cc1cc(Br)cc(C)c1NC(=O)C(=O)C(C(=O)c1ccc2ccccc2c1)C1OC(=O)c2ccccc21 (stereo not given),34.7 µM,–
CC(C)(C)OC(=O)NCC(=O)OCc1ccccc1,> 100 µM,–
Cc1ccc(SC(C)/C=C/NNC2=NC(c3ccccc3)C(c3ccccc3)=NN2)cc1 (stereo not given),> 100 µM,–
CC(C)(C)[SiH]12(OC(C(F)(F)F)(C(F)(F)F)c3ccccc31)OC(C(F)(F)F)(C(F)(F)F)c1ccccc12,21.7 µM,–
O=C1OC(c2ccccc2)=N/C1=C/C=C/c1ccco1,> 100 µM,–
Cc1ccccc1N1C(=O)/C(=C/c2ccc(N(CCC#N)CCC#N)cc2)N=C1c1cc([N+](=O)[O-])ccc1Cl,> 100 µM,–
CNC(=S)NC1CCCCC1NC(=S)NC (stereo not given),> 100 µM,–
C=CC1CC12C(=O)C1OC2(C)C2C(=O)c3cc4ccccc4cc3C(=O)C12 (stereo not given),42.1 µM,16.9 µM

# Tested on: SN12C renal
# Assay: NCI anticancer screen, dose series, 48 h
SMILES,TGI,GI50
O=[n+]1c2c(n([O-])c3ccccc31)CCCCCCCCCC2,> 100 µM,–
CNC(=S)N(C)C(=S)Nn1c(=O)c(C)nn(C)c1=S,> 100 µM,–
OCCN1CN(CCO)CN(c2nc(N3CN(CCO)CN(CCO)C3)nc(N3CN(CCO)CN(CCO)C3)n2)C1,7.22 ng/mL,6.3 ng/mL
O=C1CCCC/C(=C/c2ccccc2)N1,> 100 µM,–
O=C1CN=C(C[N+](=O)[O-])c2ccccc21,> 100 µM,–
S=C(N/N=C/c1ccco1)NC12CC3CC(CC(C3)C1)C2,> 100 µM,–
CC(=O)O.CC(=O)O.CC(=O)O.CC(=O)O.CC(=O)O.CC(=O)O.O.[Ti].[Ti],> 100 µM,> 100 µM
COc1ccc(NC(=O)CCc2cc(-c3ccc(O)c(OC)c3)nc(NC#N)n2)cc1,> 100 µM,–
COC(=O)c1cc2c3ccccc3n(C(C)=O)c2cn1,> 100 µM,–
Cc1cc(Br)cc(C)c1NC(=O)C(=O)C(C(=O)c1ccc2ccccc2c1)C1OC(=O)c2ccccc21 (stereo not given),50.5 µM,–
CC(C)(C)OC(=O)NCC(=O)OCc1ccccc1,> 100 µM,–
Cc1ccc(SC(C)/C=C/NNC2=NC(c3ccccc3)C(c3ccccc3)=NN2)cc1 (stereo not given),> 100 µM,–
CC(C)(C)[SiH]12(OC(C(F)(F)F)(C(F)(F)F)c3ccccc31)OC(C(F)(F)F)(C(F)(F)F)c1ccccc12,19.4 µM,–
O=C1OC(c2ccccc2)=N/C1=C/C=C/c1ccco1,> 100 µM,–
Cc1ccccc1N1C(=O)/C(=C/c2ccc(N(CCC#N)CCC#N)cc2)N=C1c1cc([N+](=O)[O-])ccc1Cl,> 100 µM,–
Cc1ccc(S(=O)(=O)NCC2CCCCC2=O)cc1 (stereo not given),> 100 µM,–
CNC(=S)NC1CCCCC1NC(=S)NC (stereo not given),> 100 µM,–
C=CC1CC12C(=O)C1OC2(C)C2C(=O)c3cc4ccccc4cc3C(=O)C12 (stereo not given),> 100 µM,27.8 µM

# Tested on: NCI-H460 lung
# Assay: NCI anticancer screen, dose series, 48 h
SMILES,TGI,GI50
CNC(=S)N(C)C(=S)Nn1c(=O)c(C)nn(C)c1=S,> 100 µM,–
OCCN1CN(CCO)CN(c2nc(N3CN(CCO)CN(CCO)C3)nc(N3CN(CCO)CN(CCO)C3)n2)C1,3.85 ng/mL,0.92 ng/mL
O=C1CCCC/C(=C/c2ccccc2)N1,> 100 µM,–
O=C1CN=C(C[N+](=O)[O-])c2ccccc21,> 100 µM,–
CCCCN(CCCC)CC(C(=O)Nc1ccc([N+](=O)[O-])cc1[N+](=O)[O-])/C(C)=N\NC(=S)NN (stereo not given),> 100 µM,–
S=C(N/N=C/c1ccco1)NC12CC3CC(CC(C3)C1)C2,> 100 µM,–
COc1ccc(NC(=O)CCc2cc(-c3ccc(O)c(OC)c3)nc(NC#N)n2)cc1,> 100 µM,–
COC(=O)c1cc2c3ccccc3n(C(C)=O)c2cn1,> 100 µM,–
Cc1cc(Br)cc(C)c1NC(=O)C(=O)C(C(=O)c1ccc2ccccc2c1)C1OC(=O)c2ccccc21 (stereo not given),20.9 µM,–
CC(C)(C)OC(=O)NCC(=O)OCc1ccccc1,> 100 µM,–
Cc1ccc(SC(C)/C=C/NNC2=NC(c3ccccc3)C(c3ccccc3)=NN2)cc1 (stereo not given),> 100 µM,–
CC(C)(C)[SiH]12(OC(C(F)(F)F)(C(F)(F)F)c3ccccc31)OC(C(F)(F)F)(C(F)(F)F)c1ccccc12,6.68 µM,–
Cc1ccccc1N1C(=O)/C(=C/c2ccc(N(CCC#N)CCC#N)cc2)N=C1c1cc([N+](=O)[O-])ccc1Cl,> 100 µM,–
Cc1ccc(S(=O)(=O)NCC2CCCCC2=O)cc1 (stereo not given),> 100 µM,–
CNC(=S)NC1CCCCC1NC(=S)NC (stereo not given),> 100 µM,–
C=CC1CC12C(=O)C1OC2(C)C2C(=O)c3cc4ccccc4cc3C(=O)C12 (stereo not given),> 100 µM,26.9 µM

# Tested on: TK-10 renal
# Assay: NCI anticancer screen, dose series, 48 h
SMILES,TGI,GI50
O=[n+]1c2c(n([O-])c3ccccc31)CCCCCCCCCC2,> 100 µM,–
OCCN1CN(CCO)CN(c2nc(N3CN(CCO)CN(CCO)C3)nc(N3CN(CCO)CN(CCO)C3)n2)C1,18.3 ng/mL,2.05 ng/mL
O=C1CCCC/C(=C/c2ccccc2)N1,> 100 µM,–
CCCCN(CCCC)CC(C(=O)Nc1ccc([N+](=O)[O-])cc1[N+](=O)[O-])/C(C)=N\NC(=S)NN (stereo not given),> 100 µM,–
S=C(N/N=C/c1ccco1)NC12CC3CC(CC(C3)C1)C2,> 100 µM,–
CC(=O)O.CC(=O)O.CC(=O)O.CC(=O)O.CC(=O)O.CC(=O)O.O.[Ti].[Ti],> 100 µM,> 100 µM
COC(=O)c1cc2c3ccccc3n(C(C)=O)c2cn1,> 100 µM,–
Cc1cc(Br)cc(C)c1NC(=O)C(=O)C(C(=O)c1ccc2ccccc2c1)C1OC(=O)c2ccccc21 (stereo not given),36.9 µM,–
CC(C)(C)OC(=O)NCC(=O)OCc1ccccc1,> 100 µM,–
Cc1ccc(SC(C)/C=C/NNC2=NC(c3ccccc3)C(c3ccccc3)=NN2)cc1 (stereo not given),> 100 µM,–
CC(C)(C)[SiH]12(OC(C(F)(F)F)(C(F)(F)F)c3ccccc31)OC(C(F)(F)F)(C(F)(F)F)c1ccccc12,26.3 µM,–
O=C1OC(c2ccccc2)=N/C1=C/C=C/c1ccco1,> 100 µM,–
Cc1ccc(S(=O)(=O)NCC2CCCCC2=O)cc1 (stereo not given),> 100 µM,–
C=CC1CC12C(=O)C1OC2(C)C2C(=O)c3cc4ccccc4cc3C(=O)C12 (stereo not given),97.1 µM,31.8 µM

# Tested on: UO-31 renal
# Assay: NCI anticancer screen, dose series, 48 h
SMILES,TGI,GI50
O=[n+]1c2c(n([O-])c3ccccc31)CCCCCCCCCC2,> 100 µM,–
OCCN1CN(CCO)CN(c2nc(N3CN(CCO)CN(CCO)C3)nc(N3CN(CCO)CN(CCO)C3)n2)C1,4.4 ng/mL,1.5 ng/mL
O=C1CCCC/C(=C/c2ccccc2)N1,> 100 µM,–
O=C1CN=C(C[N+](=O)[O-])c2ccccc21,> 100 µM,–
CCCCN(CCCC)CC(C(=O)Nc1ccc([N+](=O)[O-])cc1[N+](=O)[O-])/C(C)=N\NC(=S)NN (stereo not given),> 100 µM,–
S=C(N/N=C/c1ccco1)NC12CC3CC(CC(C3)C1)C2,> 100 µM,–
CC(=O)O.CC(=O)O.CC(=O)O.CC(=O)O.CC(=O)O.CC(=O)O.O.[Ti].[Ti],> 100 µM,> 100 µM
